Experimental data taken from patent US20250326722A1 (SHANGHAI HANSOH BIOMEDICAL CO., LTD., priority 2022, published 2025).

System: LDLR level in HepG2 cells
Experiment: Effect on the LDLR level in HepG2 cells (ELISA)
Assay type: cell-based, human
Design: concentration or dose not given beside the values
Details: 48 hours incubation, LDLR ELISA of lysate
Description: To detect the effect of the compounds on the LDLR protein level.
Envision (PE-Cisbio: 2105-0020), centrifuge (Eppendorf: 5810R), water purifier (THERMO: Pacific T II+Micropure), plate washer (Thermo: […] VERSA), and microplate shaker (Thermo: 88882006)
• 1) HepG2 cell strain was cultured in the complete culture medium at 37° C., 5% CO2 to 70-90% confluence. • 2) The cells were digested and resuspended in the experimental culture medium, inoculation was performed at 25,000 cells/well/200 μL in a 96-well cell culture plate, and the cells were cultured at 37° C., 5% CO2 for 20-24 hours. • 3) The culture medium was removed from the cell culture plate, and the cell culture plate was washed once by adding 200 μl of the experimental culture medium to each well. • 4) Preparation of positive control compound and compound to be tested: the positive control compound and the compound to be tested were diluted on the compound plate. • 5) The diluted compound was added to the cell culture plate at 250 μL per well and incubated at 37° C. and 5% CO2 for 48 hours. • 6) The cell culture medium was removed, the cells were washed with PBS, and 50 μL of the cell lysis buffer and the protein inhibitor were added. • 7) After centrifugation, the lysate was removed and the sample was stored for later use. • 8) Preparation of standard curve: corresponding volumes of Dilution buffer were successively added to respective standard tubes, and the standard was diluted in series by taking the corresponding volume from the original tube or the last concentration tube. • 9) Preparation of washing liquid: 10× Wash buffer was diluted into 1× with Milli-Q for later use. • 10) According to the standard curve wells and sample wells set according to a plate map, 80 μL/well of the corresponding standards and samples were added to the wells, with 2 replicate wells. A well in which no standard was added was used as a background value well. A self-adhesive seal was applied, the plate was placed on a plate shaker at room temperature, gently shaken, uniformly mixed, and incubated for 2 hours. • 11) The plate was placed on the plate washer, the washing liquid was set to 350 μL per well, and the plate was washed 4 times repeatedly. • 12) 200 μL of Human LDLR conjugate was added, a self-adhesive seal was applied, and the plate was placed on the plate shaker, well mixed uniformly, and incubated for 2 hours. • 13) The plate was placed on the plate washer, the washing liquid was set to 350 μL per well, and the plate was washed 4 times repeatedly. • 14) 200 μL/well of Substrate solution was added, and the plate was placed in the dark, applied with a self-adhesive seal, placed on the plate shaker, well mixed uniformly, and incubated for 20 minutes. • 15) 50 μL/well of Stop solution was added and mixed uniformly over 20 min. • 16) The optical density (OD) value in each well was measured in sequence at a wavelength of 450 nm by the microplate reader.
After the OD values were read by the microplate reader, the OD value of the 0-concentration standard in the standard group was subtracted from the OD values of the standards, control group, and samples to obtain the actual OD values for these wells. A standard curve was plotted with Graphpad and the concentration of the sample was calculated. If the dilution was performed during the sample detection, the calculated sample concentration was necessarily multiplied by the corresponding dilution ratio in the final calculation, which was the actual concentration of the sample. Concentration increase %=(actual concentration in control-actual concentration in sample)/actual concentration in control*100.

Structure (SMILES) | LDLR expression level [%]
O=C1c2ncccc2CN1c1ccc(N[C@H]2CC[C@H](Nc3ncc(C(F)(F)F)nn3)C2)nc1 [Example 144] | 117
Cc1cc2c(cn1)CN(c1ccc(N[C@H]3CC[C@H](Nc4ncc(C(F)(F)F)nn4)C3)nc1)C2=O [Example 148, 6-Methyl-2-(6-(((1S,3S)-3-((6-(trifluoromethyl)-1,2,4-triazin-3-yl)amino)cyclopentyl)amino)pyridin-3-yl)-2,3-dihydro-1H-pyrrolo[3,4-c]pyridin-1-one] | 121
O=C1c2c(cccc2C(F)(F)F)CN1c1ccc(N[C@H]2CC[C@H](Nc3ncc(C(F)(F)F)nn3)C2)nc1 [Example 157, 7-(Trifluoromethyl)-2-(6-(((1S,3S)-3-((6-(trifluoromethyl)-1,2,4-triazin-3-yl)amino)cyclopentyl)amino)pyridin-3-yl) isoindolin-1-one] | 129
